Key:
Type in all cases: in vivo
Mustard plants = experiment: 2021 Greenhouse Mustard Trial (soil application)
Experimental: The base formulation used in greenhouse trials was an aqueous solution of L-theanine (20% by weight). The base formulation was further diluted with water as detailed for each trial. Mustard seeds (n=28/treatment) were planted in commercial potting soil in 1-gallon pots. Approximately 14 days after seedling emergence, an aqueous L-theanine solution was mixed into water at a rate of 0.2 mL per 1000 mL water. The resulting solution was applied to the soil of the pots at a rate of 50 mL per plant. Plants were grown for an additional 14 days then harvested.

[1] = tested on: Butterbaby variety squash plant seedlings; experiment: 2021 Greenhouse Squash Trial
Source text: The base formulation used in greenhouse trials was an aqueous solution of L-theanine (20% by weight). The base formulation was further diluted with water as detailed for each trial. Butterbaby variety squash plant seedlings (n=4/treatment) were planted in commercial potting soil and then were transplanted to 3-gallon pots. L-theanine treatment was applied at the equivalent of 1 pint in 100 gallons of water (125 ppm) and sprayed till runoff. Two treatment applications were made to the plants approximately 14 days apart.

Corn seed = experiment: 2020 Greenhouse Corn Seed Treatment Trial
Experimental: The base formulation used in greenhouse trials was an aqueous solution of L-theanine (20% by weight). The base formulation was further diluted with water as detailed for each trial. Corn seed (n=9/treatment) was treated with an aqueous solution of L-theanine at a rate of 1.0 fl. oz. per hundredweight of corn seed. The seeds were planted in commercial potting soil in 1-gallon pots. The plants were grown for 21 days before they were harvested.

[2] = tested on: CalWonder variety pepper plant seedlings; experiment: 2021 Greenhouse Bell Pepper Trial
Source text: The base formulation used in greenhouse trials was an aqueous solution of L-theanine (20% by weight). The base formulation was further diluted with water as detailed for each trial. CalWonder variety pepper plant seedlings (n=4/treatment) were planted in commercial potting soil and then were transplanted to 3-gallon pots. L-theanine treatment was applied at the equivalent of 1 pint in 100 gallons of water (125 ppm) and sprayed till runoff. Two treatment applications were made to the plants approximately 14 days apart.

Soybean (Glycine max) = experiment: 2021 Replicated Nebraska Soybean Field Trial
Source text: Soybean seeds (Glycine max) were planted at a rate of 150,000 seeds per acre. The treated plot size was 5 ft×40 ft and this was replicated 4 times. A 20% aqueous L-theanine solution was applied to the foliage at 8 fl. oz./acre at the R2 (full flowering) growth stage. The trial was fertilized and maintained under grower standard practices.

Soybean seed = experiment: 2020 Greenhouse Soybean Seed Treatment Trial
Experimental: The base formulation used in greenhouse trials was an aqueous solution of L-theanine (20% by weight). The base formulation was further diluted with water as detailed for each trial. Soybean seed (n=32/treatment) was treated with an aqueous solution of L-theanine at a rate of 1.0 fl. oz. per hundredweight of soybean seed. The seeds were planted in commercial potting soil in 1-gallon pots. The plants were grown for 21 days before they were harvested.

corn = experiment: 2021 York, NE Corn Replicated Field Trial; conditions: in-furrow application 8 fl. oz. per acre; V5 growth stage; vs untreated plant
Source text: FIG. 1 is a photo from a 2021 York, NE Corn Trial. An aqueous solution of L-theanine was applied to the corn as an in-furrow application at a rate of 8 fl. oz. per acre. The pictures from the trial were taken at the V5 (5th Leaf) growth stage.

[3] = tested on: Rutgers variety tomato plant seedlings; experiment: 2021 Greenhouse Tomato Trial
Source text: The base formulation used in greenhouse trials was an aqueous solution of L-theanine (20% by weight). The base formulation was further diluted with water as detailed for each trial. Rutgers variety tomato plant seedlings (n=6/treatment) were planted in commercial potting soil and then were transplanted to 3 gallon pots. L-theanine treatment was applied at the equivalent of 1 pint in 100 gallons of water (125 ppm) and sprayed till runoff. Two treatment applications were made to the plants approximately 14 days apart.

Soybean plants = experiment: 2021 Greenhouse Soybean Trial (soil application)
Experimental: The base formulation used in greenhouse trials was an aqueous solution of L-theanine (20% by weight). The base formulation was further diluted with water as detailed for each trial. Soybean seeds (n=28/treatment) were planted in commercial potting soil in 1-gallon pots. Approximately 14 days after seedling emergence, an aqueous L-theanine solution was mixed into water at a rate of 0.2 mL per 1000 mL water. The resulting solution was applied to the soil of the pots at a rate of 50 mL per plant. Plants were grown for an additional 14 days then harvested.

[4] = 0.2 mL per 1000 mL water, 50 mL per plant, harvested 14 days later
[5] = foliar spray 125 ppm till runoff, two applications ~14 days apart
[6] = vs untreated check, 125 ppm foliar, two applications
[7] = over the untreated check, seed treatment
[8] = seed treatment 1.0 fl. oz. per hundredweight of seed, harvested after 21 days

CCNC(=O)CC[C@H](N)C(=O)O [L-theanine]
Plant Biomass (Mustard plants; [4]): 22.19 a g | Root Length (Mustard plants; [4]): 545.5 a cm | Root Tips (count) (Mustard plants; [4]): 3178.7 a count | increase in plant biomass (Mustard plants; above the untreated check): 2.8 g | increase in plant biomass, percent (Mustard plants; above the untreated check): 14.5% | increase in root length (Mustard plants; above the untreated check): 120.9 cm | increase in root length, percent (Mustard plants; above the untreated check): 28.5% | increase in root tips (Mustard plants; above the untreated check): 887 | increase in root tips, percent (Mustard plants; above the untreated check): 38.7% | plant productivity, flowering and fruit set (in words) ([1]; 125 ppm foliar, two applications): improved plant productivity, early flowering, and early fruit set | Fruit/Vine (count) [1, 5]: 4.25 a count | Vine Length [1, 5]: 55.00 a in | increase in fruit per vine [1, 6]: 2.75 fruit | increase in fruit per vine, percent [1, 6]: 183.3% | increase in vine length [1, 6]: 11.25 in | increase in vine length, percent [1, 6]: 25.7% | increase in biomass (Corn seed; [7]): 1.3 g | increase in biomass, percent (Corn seed; [7]): 4.4% | increase in root length (Corn seed; [7]): 69.1 cm | increase in root length, percent (Corn seed; [7]): 7.0% | increase in root tips (Corn seed; [7]): 883.8 | increase in root tips, percent (Corn seed; [7]): 18.5% | Plant Biomass (Corn seed; [8]): 29.88 a g | Root Length (Corn seed; [8]): 1049.08 a cm | Root Tips (#) (Corn seed; [8]): 5656.2 a # | Basal Diameter [2, 5]: 5.55 a mm | Fruit (count) [2, 5]: 5.5 a count | Plant Height [2, 5]: 26 a in | improvement in basal diameter [2, 6]: 1.82 mm | improvement in basal diameter, percent [2, 6]: 48.8% | improvement in fruit count [2, 6]: 3.0 | improvement in fruit count, percent [2, 6]: 120% | Yield (Soybean (Glycine max); 20% aqueous solution, foliar, 8 fl. oz./acre at R2 (full flowering)): 84.6 a Bushels/Acre | increase in yield (Soybean (Glycine max); over the untreated control): 6.0 bushels per acre | increase in yield, percent (Soybean (Glycine max); over the untreated control): 7.6% | increase in biomass (Soybean seed; [7]): 0.43 g | increase in biomass, percent (Soybean seed; [7]): 8.0% | increase in root length (Soybean seed; [7]): 94.4 cm | increase in root length, percent (Soybean seed; [7]): 8.1% | increase in root tips (Soybean seed; [7]): 763.4 | increase in root tips, percent (Soybean seed; [7]): 21.0% | Plant Biomass (Soybean seed; [8]): 5.80 a g | Root Length (Soybean seed; [8]): 1263.7 a cm | Root Tips (count) (Soybean seed; [8]): 4392.0 a count | root biomass development and stalk girth (FIG. 1, in words) (corn): increases in root biomass development and stalk girth | Basal Diameter [3, 5]: 6.75 a mm | Fruit (count) [3, 5]: 8.25 a count | Leaf (count) [3, 5]: 5 a count | Plant Height [3, 5]: 21.25 a in | increase in basal diameter [3, 6]: 1.1 mm | increase in basal diameter, percent [3, 6]: 19.5% | increase in fruit count [3, 6]: 3.75 | increase in fruit count, percent [3, 6]: 83.3% | increase in plant height [3, 6]: 2.5 in | increase in plant height, percent [3, 6]: 13.3% | Plant Biomass (Soybean plants; [4]): 7.44 a g | Root Length (Soybean plants; [4]): 1631.4 a cm | increase in root length (Soybean plants; above the untreated check): 66.4 cm | increase in root length, percent (Soybean plants; above the untreated check): 4.2% | increase in soybean biomass (Soybean plants; above the untreated check): 1.3 g | increase in soybean biomass, percent (Soybean plants; above the untreated check): 20.4%

Reference: patent publication US20230172203A1, “PLANT METABOLISM PROMOTING COMPOSITIONS AND METHODS OF USE” (Panoptic Ag Solutions LLC, priority 2021, published 2023)
